Values of other authors in patent US20040202640A1, “Method for topical treatment of scars with rotein Kinase C inhibitors” (priority 2003, published 2004).

Columns and labels:
calmodulin (CaM) = calmodulin (CaM) (Homo sapiens, UniProt P0DP23)
[1] = tested on: phorbol ester induced omithine decarboxylase activity; conditions: mouse skin

| CaM function (calmodulin (CaM)) | Compound | PKC inhibition (PKC) | phorbol ester induced omithine decarboxylase activity [1] |
| --- | --- | --- | --- |
|  | CCCCCCCCCCCCC/C=C/[C@@H](O)[C@@H](N)COP(=O)(O)O [sphingosingosine-1-phosphate, sphingosine-1 phosphate] | more effective PKC inhibitor than sphingosine |  |
| inhibits CaM function | CCCCCCCCCCCCC/C=C/[C@@H](O)[C@@H](N)CO [Sphingosine] | dose-dependently inhibits PKC | inhibit |
